The record followed here is patent US11702409B2, “Pyrazolyl derivatives useful as anti-cancer agents” (NOVARTIS AG, priority 2019, dated 2023).

The target of one assay is KRasG12C (Homo sapiens (Human), UniProt P01116, G12C). As to the kind of experiment: MS-based assay (% modification for a range of compound concentrations and time points). The following applies: internally determined, non-labeled ligand; read-out: (kinact/KI)probe, second order rate constant for modification of KRasG12C. It counts as biochemical.
The target in assay [1] is KRasG12C (M1-K169, biotinylated on the N-terminus) (Homo sapiens (Human), UniProt P01116, G12C). As to the kind of experiment: Covalent competition assay (scintillation proximity assay, competition with radiolabeled covalent probe Compound B). It counts as binding. Conditions: covalent competition SPA assay, KRASG12C; read-out: IC50, titration of the non-labelled version of the probe. The method, boiled down: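 Biotinylated KRasG12C (M1-K169):GDP incubated 2 h with agitation with serially diluted compounds premixed with a fixed concentration of radiolabeled covalent probe; scintillation proximity read-out of competition for covalent modification. Buffer 20 mM Tris-HCl pH 7.5, 150 mM NaCl, 0.1 mM MgCl2, 0.01% Tween-20. IC50 from 4-parameter fit.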

With `C=CC(=O)Nc1ccc(-n2c(C)c(-c3c(C)ccc4[nH]ncc34)c3cccnc32)c(F)c1` [Compound A, N-(3-fluoro-4-(2-methyl-3-(5-methyl-1H-indazol-4-yl)-1H-pyrrolo[2,3-b]pyridin-1-yl)phenyl)acrylamide, reference compound], the kinact/KI at KRasG12C was around 5000 M⁻¹ s⁻¹. The IC50 in assay [1] turned out to be 500 nM.
